# Experimental data from the supplement of paper PMC11208160.
# Experiment: recombinant barcode read abundance after kanamycin selection (control-corrected) (log10(CPM+1)); higher = more efficient recombination; sequences stand for … in AGTGCAGAGAAAATCGGCCAGTTTTCTCTGCCTGCAGTCCGCATGCCGT…AGATTTATGCAGCGGACTGCCTTTCTCCCAAAGTGATAAACCGGACAGTATCATGGACCGGTTTTCCCGGTAATCCGTATTTGCAAGGTTGGTTTCACT; site = the 11-nt target
# Summary of the method: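 Values are log10(CPM+1) from a pooled E. coli screen of targets paired with IS621 bridge RNA target-binding loops. Recombination efficiency here means counts per million of recombinant-junction barcodes, averaged and control-corrected. Plates were chloramphenicol/ampicillin LB agar for the control and chloramphenicol/ampicillin/kanamycin with 0.1 mM IPTG, two replicates each.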
# 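Further: IS621 recombinase and bridge RNA in Escherichia coli cells.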
row,Sequence,recombinant barcode read abundance (log10)
1,GACTCATCTTGGGTTCTAACCTGTTGCGG (site GACTTGTCTCC),0.11
2,GACTCTCCTTGGGTTCTAACCTGTTGCTG (site GACTCTCCTCA),0.146
3,GACTCTCCTTGGGTTCTAACCTGTTGCTG (site GACTCTCCTCT),0.0367
4,GACTGAGCTTGGGTTCTAACCTGTTGCGT (site GACTGAGCTAC),2.58
5,GACTGAGCTTGGGTTCTAACCTGTTGCGT (site GGCTGAGCTAG),0.236
6,GACTGCCCTTGGGTTCTAACCTGTTGCGG (site GACTGCCCTCC),1.54
7,GACTGCCCTTGGGTTCTAACCTGTTGCGG (site GGCGGCCCTCC),0.137
8,GACTTACCTTGGGTTCTAACCTGTTGCAT (site GACTTACCTAT),1.18
9,GACTTACCTTGGGTTCTAACCTGTTGCAT (site GACTTCCCTAT),0.216
10,GACTTACCTTGGGTTCTAACCTGTTGCAT (site GACTTGCCTAT),0.135
11,GACTTACCTTGGGTTCTAACCTGTTGCAT (site GACTTTCCTAT),0.124
12,GACTTCCCTTGGGTTCTAACCTGTTGCAT (site GACTTACCTAT),0.352
13,GACTTCCCTTGGGTTCTAACCTGTTGCAT (site GACTTCCCTAT),1.45
14,GACTTCCCTTGGGTTCTAACCTGTTGCAT (site GACTTGCCTAT),0.0893
15,GACTTCCCTTGGGTTCTAACCTGTTGCAT (site GACTTTCCTAT),0.0857
16,GACTTGCCTTGGGTTCTAACCTGTTGCCT (site GACTTGACTAG),0.023
17,GACTTGCCTTGGGTTCTAACCTGTTGCCT (site GACTTGCCTAG),0.816
18,GACTTGCCTTGGGTTCTAACCTGTTGCCT (site GACTTGGCTAG),0.394
19,GACTTGCCTTGGGTTCTAACCTGTTGCCT (site GACTTGTCTAG),0.217
20,GACTTGTCTTGGGTTCTAACCTGTTGCGG (site GACTCATCTCC),0
21,GACTTGTCTTGGGTTCTAACCTGTTGCGG (site GACTTGTCTCC),1.59
22,GACTTTACTTGGGTTCTAACCTGTTGCCT (site GACGTTGCTAG),0.00775

row,Sequence,recombinant barcode read abundance (log10)
1,GACTTTACTTGGGTTCTAACCTGTTGCCT (site GACTTTACTAG),0.0133
2,GAGAGTACTTGGGTTCTAACCTGTTGCAT (site GAGAGTACTAT),0.982
3,GAGAGTACTTGGGTTCTAACCTGTTGCAT (site GAGCGTACTAT),0.16
4,GAGAGTACTTGGGTTCTAACCTGTTGCAT (site GAGGGTACTAT),0.654
5,GAGAGTACTTGGGTTCTAACCTGTTGCAT (site GAGTGTACTAT),0.0293
6,GAGATCCCTTGGGTTCTAACCTGTTGCCT (site GAGATCCCTAG),2.03
7,GAGATCCCTTGGGTTCTAACCTGTTGCCT (site GTGATCCCTAG),0.422
8,GAGCCTCCTTGGGTTCTAACCTGTTGCAT (site ACCAGGACTCG),0.136
9,GAGCCTCCTTGGGTTCTAACCTGTTGCAT (site GAGCCTCCTAT),1.81
10,GAGCCTTCTTGGGTTCTAACCTGTTGCAG (site AAGCCTTCTCA),0.0383
11,GAGCCTTCTTGGGTTCTAACCTGTTGCAG (site GAGCCTTCTCT),1.46
12,GAGCGAGCTTGGGTTCTAACCTGTTGCAG (site GAGCGAGCTCA),0.578
13,GAGCGAGCTTGGGTTCTAACCTGTTGCAG (site GAGCGAGCTCC),0.322
14,GAGCGAGCTTGGGTTCTAACCTGTTGCAG (site GAGCGAGCTCG),0.175
15,GAGCGAGCTTGGGTTCTAACCTGTTGCAG (site GAGCGAGCTCT),1.46
16,GAGCGAGCTTGGGTTCTAACCTGTTGCAT (site GAGAGAGCTAT),0.0856
17,GAGCGAGCTTGGGTTCTAACCTGTTGCAT (site GAGCGAGCTAT),1.94
18,GAGCGAGCTTGGGTTCTAACCTGTTGCAT (site GAGGGAGCTAT),0.0637
19,GAGCGAGCTTGGGTTCTAACCTGTTGCAT (site GAGTGAGCTAT),0.735
20,GAGCGCACTTGGGTTCTAACCTGTTGCAG (site GAGCGCACTCC),0.27
21,GAGCGCACTTGGGTTCTAACCTGTTGCAG (site GAGCGCACTCT),1.7
22,GAGCGCTCTTGGGTTCTAACCTGTTGCTT (site GAGCGCTCTAA),1.22

row,Sequence,recombinant barcode read abundance (log10)
1,GAGCGCTCTTGGGTTCTAACCTGTTGCTT (site GAGCGCTCTCA),0.0723
2,GAGCGCTCTTGGGTTCTAACCTGTTGCTT (site GAGCGCTCTGA),0.088
3,GAGCGCTCTTGGGTTCTAACCTGTTGCTT (site GAGCGCTCTTA),0.269
4,GAGCGGACTTGGGTTCTAACCTGTTGCCT (site GAGCAGACTAG),0.698
5,GAGCGGACTTGGGTTCTAACCTGTTGCCT (site GAGCCGACTAG),0.388
6,GAGCGGACTTGGGTTCTAACCTGTTGCCT (site GAGCGGACTAG),1.68
7,GAGCGGACTTGGGTTCTAACCTGTTGCCT (site GAGCTGACTAG),0.129
8,GAGCTACCTTGGGTTCTAACCTGTTGCCA (site GAGCTACCTAG),0.796
9,GAGCTACCTTGGGTTCTAACCTGTTGCCA (site GAGCTACCTCG),0.213
10,GAGCTACCTTGGGTTCTAACCTGTTGCCA (site GAGCTACCTGG),0.13
11,GAGCTACCTTGGGTTCTAACCTGTTGCCA (site GAGCTACCTTG),1.11
12,GAGCTACCTTGGGTTCTAACCTGTTGCCG (site GAGCTACCTAG),0.837
13,GAGCTACCTTGGGTTCTAACCTGTTGCCG (site GAGCTACCTCG),1.11
14,GAGCTACCTTGGGTTCTAACCTGTTGCCG (site GAGCTACCTGG),0.0124
15,GAGCTACCTTGGGTTCTAACCTGTTGCCG (site GAGCTACCTTG),0.214
16,GAGCTCACTTGGGTTCTAACCTGTTGCCA (site GAGCACCCTTG),0.0579
17,GAGCTCACTTGGGTTCTAACCTGTTGCCA (site GAGCTCACTTG),0.514
18,GAGCTGACTTGGGTTCTAACCTGTTGCCT (site GAGCAGACTAG),0.182
19,GAGCTGACTTGGGTTCTAACCTGTTGCCT (site GAGCCGACTAG),0.488
20,GAGCTGACTTGGGTTCTAACCTGTTGCCT (site GAGCGGACTAG),0.0812
21,GAGCTGACTTGGGTTCTAACCTGTTGCCT (site GAGCTGACTAG),1.49
22,GAGCTTGCTTGGGTTCTAACCTGTTGCGA (site GAGCTTGCTTC),0.949

row,Sequence,recombinant barcode read abundance (log10)
1,GAGCTTGCTTGGGTTCTAACCTGTTGCGA (site TGCGGGTCTAG),0.122
2,GAGGACTCTTGGGTTCTAACCTGTTGCCT (site GAGGACTCTAG),3
3,GAGGACTCTTGGGTTCTAACCTGTTGCCT (site GAGGACTCTCG),0.0247
4,GAGGACTCTTGGGTTCTAACCTGTTGCCT (site GAGGACTCTGG),1.29
5,GAGGACTCTTGGGTTCTAACCTGTTGCCT (site GAGGACTCTTG),0.0974
6,GAGGCTCCTTGGGTTCTAACCTGTTGCGT (site GAAGCTCCTAC),1.54
7,GAGGCTCCTTGGGTTCTAACCTGTTGCGT (site GAGGCTCCTAC),2.97
8,GAGGGCCCTTGGGTTCTAACCTGTTGCAG (site GAGGGCCCTCA),2.07
9,GAGGGCCCTTGGGTTCTAACCTGTTGCAG (site GAGGGCCCTCC),0.926
10,GAGGGCCCTTGGGTTCTAACCTGTTGCAG (site GAGGGCCCTCG),1.4
11,GAGGGCCCTTGGGTTCTAACCTGTTGCAG (site GAGGGCCCTCT),2.88
12,GAGGGCCCTTGGGTTCTAACCTGTTGCCT (site AAGGGCCCTAG),1.38
13,GAGGGCCCTTGGGTTCTAACCTGTTGCCT (site CAGGGCCCTAG),1.04
14,GAGGGCCCTTGGGTTCTAACCTGTTGCCT (site GAGGGCCCTAG),2.41
15,GAGGGCCCTTGGGTTCTAACCTGTTGCCT (site TAGGGCCCTAG),1.04
16,GAGGGTCCTTGGGTTCTAACCTGTTGCCT (site GAGGGTCCTAA),0.451
17,GAGGGTCCTTGGGTTCTAACCTGTTGCCT (site GAGGGTCCTAC),0.133
18,GAGGGTCCTTGGGTTCTAACCTGTTGCCT (site GAGGGTCCTAG),2.56
19,GAGGGTCCTTGGGTTCTAACCTGTTGCCT (site GAGGGTCCTAT),0.457
20,GAGGGTCCTTGGGTTCTAACCTGTTGCTT (site GAGGGTCCTAA),2
